Molecules are shown by their SMILES.

Common to all, as to test: c-ponatinib pulldown LC-MS/MS
Assay type in all cases: binding

The target in one experiment is T1, PAG1 (Homo sapiens, UniProt Q9NWQ8).
T1 sequence (Q9NWQ8 1-432): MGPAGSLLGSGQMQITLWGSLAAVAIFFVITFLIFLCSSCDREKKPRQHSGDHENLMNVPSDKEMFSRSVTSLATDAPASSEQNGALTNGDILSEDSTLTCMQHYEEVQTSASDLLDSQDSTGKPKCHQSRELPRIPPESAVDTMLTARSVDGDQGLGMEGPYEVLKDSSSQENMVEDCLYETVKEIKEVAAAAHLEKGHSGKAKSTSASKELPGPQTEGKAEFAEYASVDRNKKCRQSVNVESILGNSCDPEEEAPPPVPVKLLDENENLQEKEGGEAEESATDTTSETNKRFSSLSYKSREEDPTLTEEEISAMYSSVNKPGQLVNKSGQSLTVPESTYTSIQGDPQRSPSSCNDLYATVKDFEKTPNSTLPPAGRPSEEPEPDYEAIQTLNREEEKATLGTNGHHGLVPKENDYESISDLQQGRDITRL
On the procedure:
(§1) Drug-affinity matrices were prepared as described previously.[51] In brief, 25 nmol of c-ponatinib were immobilized on 50 μl NHS-activated Sepharose 4 Fast Flow beads (GE Healthcare Bio-Sciences AB, Uppsala, Sweden). 10 mg whole cell lysate was used as protein input per replicate. Affinity chromatography and elution were performed in duplicate. After elution, the enriched proteins were reduced with dithiothreitol (DTT) and cysteine residues were alkylated by incubation with iodoacetamide. The samples were digested with modified porcine trypsin (Promega). Five percent of the digested eluates were purified and concentrated by C18 reversed-phase material. Subsequently, samples were analyzed in duplicates by gel-free one-dimensional LCMS.
(§2) Precursor and MS/MS peaks were extracted from the RAW files and saved in the MGF format using msconvert tool (ProteoWizard Library v2.1.2708, www.proteowizard.sourceforge.net) for subsequent protein identification. An initial database search was performed with broader mass tolerance and conservative score threshold to re-calibrate the mass lists for optimal final protein identification. For the initial protein database search, Mascot (www.matrixscience.com, v2.3.02) was used. Error tolerances on the precursor and fragment ions were ±10 p.p.m. and ±0.6 Da, respectively, and the database search limited to fully-tryptic peptides with maximum one missed cleavage, carbamidomethyl cysteine and methionine oxidation set as fixed and variable modifications, respectively. The Mascot peptide ion score threshold was set to 30, and at least three peptide identifications per protein were required. Searches were performed against the human UniProtKB/SwissProt database (www.uniprot.org release 2013.01) including all protein isoforms. The initial peptide identifications were used to deduce independent linear transformations for precursor and fragment masses that would minimize the mean square deviation of measured masses from theoretical. Re-calibrated mass list files were searched against the same human protein database by a combination of Mascot and Phenyx (GeneBio SA, Geneva, Switzerland; version 2.5.14) search engines using narrower mass tolerances (±4 p.p.m. and ±0.3 Da). One missed tryptic cleavage site was allowed. Carbamidomethyl cysteine was set as a fixed modification and oxidized methionine was set as a variable modification. To validate the proteins, Mascot and Phenyx output files were processed by internally developed parsers. Proteins with ≥2 unique peptides above a score T1, or with a single peptide above a score T2 were selected as unambiguous identifications. Additional peptides for these validated proteins with score >T3 were also accepted. For Mascot searches, the following thresholds were used: T1=14, T2=40 and T3=10; Phenyx thresholds were set to 4.2, 4.75 and 3.5, respectively (P-value<10^−3). The validated proteins retrieved by the two algorithms were merged, any spectral conflicts discarded and grouped according to shared peptides. A false discovery rate of <1% for protein identifications and <0.1% for peptides (including the ones exported with lower scores) was determined by applying the same procedure against a database of reversed protein sequences. […] In addition to Mascot protein scores that were proposed as an estimate of protein abundance by the original algorithm, the modified version also included Phenyx protein scores and spectral counts. The algorithm first estimated three measure-specific P-values for each putative interaction, and, in contrast to,[69] P-value calculation utilized the quantiles of the measurements rather than the original data. The Fisher's method was used to combine the three resulting P-values into a single P-value for drug–protein interaction specificity. We have also correlated interaction P-values with the magnitude of competition effect represented by the fold reduction of spectral counts on free compound competition. […]

A further experiment has as its target TUBA1B (Homo sapiens, UniProt P68363). The method, then: as §1, §2
For the next experiment, the target named is ABL1 (Homo sapiens, UniProt P00519). On the procedure:
as §1, §2

Another experiment deals with T2, TAOK3 (Homo sapiens, UniProt Q9H2K8).
T2 sequence (Q9H2K8 1-898): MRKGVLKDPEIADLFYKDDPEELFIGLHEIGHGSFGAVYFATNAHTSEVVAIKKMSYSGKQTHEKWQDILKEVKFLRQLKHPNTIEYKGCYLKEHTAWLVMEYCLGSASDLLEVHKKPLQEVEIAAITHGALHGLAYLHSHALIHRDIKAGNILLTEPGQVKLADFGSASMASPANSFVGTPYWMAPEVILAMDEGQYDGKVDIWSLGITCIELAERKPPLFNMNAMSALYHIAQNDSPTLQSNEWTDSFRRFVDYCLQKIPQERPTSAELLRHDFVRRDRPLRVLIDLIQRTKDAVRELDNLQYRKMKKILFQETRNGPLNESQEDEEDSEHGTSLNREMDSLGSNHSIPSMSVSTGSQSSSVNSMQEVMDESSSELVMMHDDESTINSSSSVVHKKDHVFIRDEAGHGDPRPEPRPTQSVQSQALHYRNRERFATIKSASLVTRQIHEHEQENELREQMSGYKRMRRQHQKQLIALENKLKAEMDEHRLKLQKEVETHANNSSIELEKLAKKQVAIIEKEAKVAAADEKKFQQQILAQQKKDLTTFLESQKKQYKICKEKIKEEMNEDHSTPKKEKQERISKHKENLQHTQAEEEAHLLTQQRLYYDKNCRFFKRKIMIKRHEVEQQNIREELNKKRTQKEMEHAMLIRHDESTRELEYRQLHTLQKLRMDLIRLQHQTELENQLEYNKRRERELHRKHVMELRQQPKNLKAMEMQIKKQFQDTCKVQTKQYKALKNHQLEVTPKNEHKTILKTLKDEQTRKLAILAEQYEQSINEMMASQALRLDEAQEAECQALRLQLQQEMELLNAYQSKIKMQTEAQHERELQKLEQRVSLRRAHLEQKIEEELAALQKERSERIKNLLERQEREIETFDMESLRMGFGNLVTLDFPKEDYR
The method, then: as §1, §2

In a further experiment the target is STK10 (Homo sapiens, UniProt O94804). On the procedure: as §1, §2
STK10, sequence (O94804 whole entry): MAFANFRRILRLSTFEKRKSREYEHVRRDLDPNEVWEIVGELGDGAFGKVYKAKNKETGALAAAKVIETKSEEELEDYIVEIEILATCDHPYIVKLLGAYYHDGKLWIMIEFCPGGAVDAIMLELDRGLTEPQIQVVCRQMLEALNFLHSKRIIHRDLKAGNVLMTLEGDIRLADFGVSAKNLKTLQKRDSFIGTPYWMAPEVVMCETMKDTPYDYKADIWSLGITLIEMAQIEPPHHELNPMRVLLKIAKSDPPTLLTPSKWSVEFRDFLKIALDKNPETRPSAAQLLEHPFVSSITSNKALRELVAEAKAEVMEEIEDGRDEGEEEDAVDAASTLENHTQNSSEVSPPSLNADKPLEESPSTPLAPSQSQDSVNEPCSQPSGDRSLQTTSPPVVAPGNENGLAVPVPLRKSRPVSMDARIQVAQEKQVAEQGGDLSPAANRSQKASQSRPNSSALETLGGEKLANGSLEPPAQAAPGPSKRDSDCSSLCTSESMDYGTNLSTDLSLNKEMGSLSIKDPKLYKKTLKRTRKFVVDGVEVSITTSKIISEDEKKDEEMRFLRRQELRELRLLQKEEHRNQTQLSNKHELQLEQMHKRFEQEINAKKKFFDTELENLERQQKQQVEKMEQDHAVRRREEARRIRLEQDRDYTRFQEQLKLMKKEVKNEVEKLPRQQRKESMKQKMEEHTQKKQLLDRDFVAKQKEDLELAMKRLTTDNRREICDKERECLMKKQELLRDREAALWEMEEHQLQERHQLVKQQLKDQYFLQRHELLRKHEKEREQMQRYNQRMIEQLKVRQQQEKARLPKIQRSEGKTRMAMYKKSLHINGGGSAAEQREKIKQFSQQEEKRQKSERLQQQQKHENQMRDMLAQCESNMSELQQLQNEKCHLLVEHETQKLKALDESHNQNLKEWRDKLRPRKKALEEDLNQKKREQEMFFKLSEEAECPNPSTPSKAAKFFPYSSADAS

ABL1, sequence (P00519 whole entry): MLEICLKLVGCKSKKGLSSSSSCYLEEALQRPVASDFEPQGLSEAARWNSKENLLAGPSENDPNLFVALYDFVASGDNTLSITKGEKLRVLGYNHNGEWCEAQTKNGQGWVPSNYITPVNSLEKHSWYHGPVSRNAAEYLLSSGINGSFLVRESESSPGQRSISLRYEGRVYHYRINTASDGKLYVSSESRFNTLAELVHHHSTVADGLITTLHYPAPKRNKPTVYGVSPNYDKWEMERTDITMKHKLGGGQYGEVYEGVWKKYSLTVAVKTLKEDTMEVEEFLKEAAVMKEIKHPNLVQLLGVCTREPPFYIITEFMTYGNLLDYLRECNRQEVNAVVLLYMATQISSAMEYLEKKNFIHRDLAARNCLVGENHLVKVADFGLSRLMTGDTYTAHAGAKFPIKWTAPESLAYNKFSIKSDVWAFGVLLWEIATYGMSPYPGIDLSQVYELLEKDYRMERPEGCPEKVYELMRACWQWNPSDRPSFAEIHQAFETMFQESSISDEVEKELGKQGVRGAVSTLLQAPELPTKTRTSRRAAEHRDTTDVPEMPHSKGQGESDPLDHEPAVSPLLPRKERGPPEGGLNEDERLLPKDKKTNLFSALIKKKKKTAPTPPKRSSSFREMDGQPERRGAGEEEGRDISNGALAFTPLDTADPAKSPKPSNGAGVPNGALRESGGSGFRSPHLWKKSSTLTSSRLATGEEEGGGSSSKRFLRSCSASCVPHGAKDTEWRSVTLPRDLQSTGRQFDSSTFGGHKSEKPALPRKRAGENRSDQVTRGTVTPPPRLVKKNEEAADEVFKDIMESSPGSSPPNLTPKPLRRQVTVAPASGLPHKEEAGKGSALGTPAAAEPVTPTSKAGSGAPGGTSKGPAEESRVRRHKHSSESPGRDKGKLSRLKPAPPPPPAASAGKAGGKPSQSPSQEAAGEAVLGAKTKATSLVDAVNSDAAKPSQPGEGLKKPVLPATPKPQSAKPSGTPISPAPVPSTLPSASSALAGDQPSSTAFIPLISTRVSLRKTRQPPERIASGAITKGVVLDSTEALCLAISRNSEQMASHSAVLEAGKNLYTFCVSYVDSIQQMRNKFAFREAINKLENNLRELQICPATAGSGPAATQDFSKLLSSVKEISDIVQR
TUBA1B, sequence (P68363 whole entry): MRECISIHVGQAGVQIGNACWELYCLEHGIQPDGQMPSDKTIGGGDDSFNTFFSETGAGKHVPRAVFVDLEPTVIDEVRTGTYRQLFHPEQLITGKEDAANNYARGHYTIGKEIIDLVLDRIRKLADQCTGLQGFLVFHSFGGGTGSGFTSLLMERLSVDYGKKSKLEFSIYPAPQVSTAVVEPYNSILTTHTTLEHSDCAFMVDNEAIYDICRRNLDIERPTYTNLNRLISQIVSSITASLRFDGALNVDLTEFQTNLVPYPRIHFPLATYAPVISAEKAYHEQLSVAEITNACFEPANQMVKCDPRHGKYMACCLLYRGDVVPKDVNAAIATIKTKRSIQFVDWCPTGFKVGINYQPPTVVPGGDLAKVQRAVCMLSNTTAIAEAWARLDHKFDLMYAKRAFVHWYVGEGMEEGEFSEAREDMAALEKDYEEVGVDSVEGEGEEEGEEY
TUBA1B, sequence (P07437 whole entry partner): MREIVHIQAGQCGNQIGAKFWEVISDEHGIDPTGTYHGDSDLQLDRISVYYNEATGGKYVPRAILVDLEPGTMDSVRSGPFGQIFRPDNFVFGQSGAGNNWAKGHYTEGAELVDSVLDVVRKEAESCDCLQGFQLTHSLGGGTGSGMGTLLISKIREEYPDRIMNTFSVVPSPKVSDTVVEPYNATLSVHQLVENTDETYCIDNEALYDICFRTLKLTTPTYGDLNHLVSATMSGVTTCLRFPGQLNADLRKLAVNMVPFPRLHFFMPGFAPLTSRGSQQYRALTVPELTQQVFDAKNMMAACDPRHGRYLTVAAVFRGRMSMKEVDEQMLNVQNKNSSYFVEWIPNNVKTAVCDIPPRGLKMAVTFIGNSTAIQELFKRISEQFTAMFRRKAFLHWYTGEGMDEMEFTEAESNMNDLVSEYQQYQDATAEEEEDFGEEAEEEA

On to `Cc1ccc(C(=O)Nc2ccc(CN3CCN(CCCN)CC3)c(C(F)(F)F)c2)cc1C#Cc1cnc2cccnn12` [c-ponatinib], for which the “Av. SC comp.” value at PAG1 (+ free ponatinib) was 0; at TUBA1B (+ free ponatinib) it was 10.25; at ABL1 (+ free ponatinib), 0; on TAOK3 (+ free ponatinib) it was 2; at STK10 (+ free ponatinib), 0. Also, the “Total SC comp.” value worked out at 0 on PAG1 (+ free ponatinib); 41 on TUBA1B (+ free ponatinib); 0 at ABL1 (+ free ponatinib); 8 on TAOK3 (+ free ponatinib); 0 on STK10 (+ free ponatinib). Further, the “Av. SC” value on PAG1 (no competitor) is reported as 2; on TUBA1B (no competitor), 18.5; at ABL1 (no competitor), 13.75; at TAOK3 (no competitor), 13; at STK10 (no competitor), 5.5. In addition, the “Total SC” value on PAG1 (no competitor) is listed as 8; at TUBA1B (no competitor), 74; on ABL1 (no competitor), 55; at TAOK3 (no competitor), 52; at STK10 (no competitor), 22.

The record behind these values is PMC4669708 (Cell Death & Disease, 2015).
